What was measured:
[1] = mouse, in vivo
Protocol: All tissues (heart, spleen, kidney, liver, and colon) were fixed in phosphate-buffered formalin for 24 h, paraffin-embedded, and cut in 10 μm sections. Routine histology (H&E) was performed. Renal toxicity was assessed after completion of therapy. Histology (H&E) from representative murine kidney sections (n=4) from the different treatment groups were evaluated for tubules with vacuoles on five random fields (400× magnification) for each specimen.

[2] = Body weight and physical signs during therapy; assay type: in vivo, CPC; Apc mice; details: vs no treatment (NSS) and plain rapamycin micelles
Protocol: The number of mice (number of adenomas) at the end of the study were n=5 (20), 6 (24), 5 (22), and 7 (21), respectively. Two mice (one in NSS group and one in unlabeled (plain) rapamycin micelle group) died from unexplained cause. […] Mice underwent endoscopy every ˜4 days to monitor adenoma regression and were weighed every 2 days for 5 weeks. A total of n=230 colonoscopy examinations was performed.
A linear mixed effects regression models was used to assess efficacy and toxicity. An interaction between treatment groups and time (days) was estimated in the model to compare adenoma regression rates among the different rapamycin formulations. The model has two random effects to incorporate a correlation between data measured on the same adenoma and a correlation between adenomas found within the same animal. For weights, only one random effect was used to model the correlation between data from the same animal. A comparison was considered significant if P<0.01 to adjust for multiple comparisons. All analyses were performed using SAS ver 9.3. Unless stated otherwise, all data were tested for normality. A one-way ANOVA or non-parametric Kruskal-Wallis was used to determined statistical significance for comparisons among more than 2 groups. If there was at least one difference between treatment groups, multiple comparisons were used to search for pairwise differences. […]

colonic adenomas = assay: In vivo fluorescence endoscopy of Cy5.5-labeled peptides binding to colonic adenomas; set-up: species or system CPC; Apc mouse; details: Cy5.5-labeled peptide, 200 μM via tail vein, 1 hour circulation
Text: Our laboratory has previously identified a group of peptides that bind specifically to colonic adenomas in the CPC; Apc mouse. Peptides […] (SEQ ID NO: 3), KCCFPAQ (SEQ ID NO: 9), LTTHYKL (SEQ ID NO: 18), and AKPGYLS (SEQ ID NO: 17) were identified using phage display technology. Peptides YTTTNAS (SEQ ID NO: 64) and DNEPIAQ (SEQ ID NO: 65) were included as controls. These peptides were identified based on an unbiased screen of cells and tissues to maximize specific binding in vivo. The peptides were labeled with Cy5.5 and injected via tail vein at a concentration of 200 μM in 1×PBS. The peptides were allowed to circulate for 1 hour to allow for non-specific binding to clear. The colon was rinsed again with tap water. Fluorescence images were then collected. […] Fluorescence images for each adenoma were analyzed by defining a region of interest (ROI) around the adenoma and adjacent normal-appearing mucosa using ImageJ software. The mean values were calculated for each ROI, and the T/B ratio was determined. The mean T/B ratio for each peptide was calculated, and Kruskal-Wallis and Dunn's multiple comparison tests were used to determine statistical differences. […]
We performed in vivo imaging of colon in CPC; Apc mice to select the peptide to label the micelles. […] Adenomas with diameter of >1.5 mm were identified, and the location from the anus was recorded. […]

Compound: CO[C@H]1C[C@@H]2CC[C@@H](C)[C@@](O)(O2)C(=O)C(=O)N2CCCC[C@H]2C(=O)O[C@H]([C@H](C)C[C@@H]2CC[C@@H](O)[C@H](OC)C2)CC(=O)[C@H](C)/C=C(\C)[C@@H](O)[C@@H](OC)C(=O)[C@H](C)C[C@H](C)/C=C/C=C/C=C/1C [free rapamycin, Rapamycin]
- renal toxicity: number of vacuolated tubules per high-power field [1]: significantly greater number of vacuoles
- body weight [2]: gained more weight

Compound: LTTHYKL (SEQ ID NO: 18) [LTT*]
- target-to-background (T/B) ratio, in vivo fluorescence (colonic adenomas): strongest binding
- target-to-background (T/B) ratio, in vivo fluorescence (colonic adenomas; listed as LTTHYKL): highest mean value
